pKd: −log10 of the molar value.
What was measured:
wild-type YopH = wild-type YopH (Yersinia pestis, UniProt O68720); experiment: biochemical; type: binding
YopH [1] = target: T1, YopH (Yersinia pestis, UniProt O68720); conditions: cited from earlier work
N-terminus of YopH = conditions: read-out: equilibrium dissociation constant; cited from earlier work
YopH [2] = target: T1, YopH
[3] = target: YopH N-terminus (Yersinia pestis) (UniProt P08538); experiment: NMR; conditions: cited from earlier work
YopH N-terminus (Yersinia pestis), sequence (P08538 1-129): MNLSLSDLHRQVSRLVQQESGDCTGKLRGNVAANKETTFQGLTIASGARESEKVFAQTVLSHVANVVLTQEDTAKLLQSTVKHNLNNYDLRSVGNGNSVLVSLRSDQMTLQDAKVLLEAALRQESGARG

wild-type YopH, sequence (O68720 164-468 limits assumed): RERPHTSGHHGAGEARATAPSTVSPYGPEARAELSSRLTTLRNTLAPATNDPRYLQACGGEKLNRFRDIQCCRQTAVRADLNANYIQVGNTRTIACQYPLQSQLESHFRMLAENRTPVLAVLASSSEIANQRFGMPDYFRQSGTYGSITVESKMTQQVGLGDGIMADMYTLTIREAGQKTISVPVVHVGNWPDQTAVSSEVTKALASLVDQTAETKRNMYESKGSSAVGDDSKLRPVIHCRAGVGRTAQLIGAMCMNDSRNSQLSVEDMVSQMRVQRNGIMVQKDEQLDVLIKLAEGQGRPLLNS
T1 sequence (O68720 164-468 limits assumed): as above

Row | Compound | koff (wild-type YopH) | kon (wild-type YopH) | ΔG (wild-type YopH) | other results
1 | N[C@@H](Cc1ccc(OP(=O)(O)O)cc1)C(=O)O [L-phosphotyrosine, reference compound] | 0.679 | 0.278 M⁻¹ s⁻¹ | -2.2 kcal/mol | pKd (wild-type YopH): 1.61
2 | DADE-pYLIPQQG | – | – | – | rate constant for dephosphorylation (YopH [1]): 2.23e+07 M⁻¹ s⁻¹
3 | O=[N+]([O-])c1ccc(OP(=O)(O)O)cc1 [pNPP, para-nitrophenylphosphate] | – | – | – | catalytic activity of YopH toward substrate, lower than the pTyr-containing peptide (YopH [1]): 1300 fold
4 | O=C(O)c1ccc(/C=N/OCc2ccc(-c3cccc(C(F)(F)P(=O)(O)O)c3)cc2)o1 [compound 3, 5-((1E)-(((4-(3-(difluoro(phosphono)methyl)phenyl)phenyl)methoxy)imino)methyl)furan-2-carboxylic acid] | 0.945 (0.13) | 44.5 M⁻¹ s⁻¹ | – | pKd (wild-type YopH): 3.62
5 | DADEpYL [hexapeptide] | – | – | – | pKd (N-terminus of YopH): 5.00
6 | (difluoro((3-(4-((((E)-furan-2-ylmethylidene)amino)oxy)methyl)phenyl)phenyl))methyl) phosphonic acid [compound 2] | 2.15 (0.89) | – | −5.28 (0.20) kcal/ mol | –
7 | (difluoro((3-(4-((((E)-furan-3-ylmethylidene)amino)oxy)methyl)phenyl)phenyl))methyl) phosphonic acid [compound 1] | 1.95 (0.95) | 73.4 (34.8) 1/Ms | −4.88 (0.43) kcal/ mol | inhibition of PTPase activity on microarrayed pTyr-EGFR peptide (in words) (YopH [2]): dose-response relationship
8 | EGFR phosphopeptide (from UniProt P00533) | – | – | – | pKd [3]: 5.00
